Reference: PMC6591635, “Advancing the Therapeutic Potential of Indoleamides for Tuberculosis” (Antimicrobial Agents and Chemotherapy, 2019)
Values after ≈ are worked out from the molar mass of the structure shown. Values joined by “and” are separate entries in the source; they are usually repeats but may differ in a detail not shown here. Identical values can stand only once. Like-named read-outs stand apart in the source and are kept apart here. Marks after values point to notes of the source that are not given here.

Tests used:
M. tuberculosis H37Rv [1] = assay: Field emission scanning electron microscopy of cell morphology (dimples per 100 bacilli); type: cell-based, Mycobacterium tuberculosis; settings: 24 hours of treatment, FESEM; for Cell morphology (dimples per 100 cells, deformed bacilli): 10× MIC
M. tuberculosis H37Rv [2] = type: in vivo, Mycobacterium tuberculosis
[3] = Single dose pharmacokinetic study in mice (oral formulations, i.v.); type: in vivo, Swiss Webster mice; settings: mouse
Protocol: To enhance oral bioavailability, we developed a novel formulation for compound 2 in propylene glycol (PG):Tween 80 (4:1, vol/vol). We compared the bioavailability of this new formulation with a previously reported formulation using 0.5% (wt/vol) carboxymethyl cellulose (CMC) ([19]). For oral (p.o.) administration, compound 2 was prepared in either formulation at 1 mg/ml of homogeneous suspension to achieve a 10-mg/kg dose level. For intravenous (i.v.) injection, a 0.22-mg/ml solution of compound 2 in PG:Tween 80:5% glucose at 20:10:70 (vol/vol/vol) was used. Five-week-old male Swiss Webster mice were randomly assigned to time points (3 mice per arm per time point). Serial blood samples of approximately 30 μl were collected at 0.25, 0.5, 1, 2, 4, 8, and 24 h after a single p.o. dose; and at 0.083, 0.33, 1, 2, 4, 8, and 24 h after a single i.v. dose. Plasma was harvested and stored at −80°C until analysis. Plasma samples were analyzed for compound 2 using liquid chromatography-tandem mass spectrometry (LC-MS/MS), with a limit of quantification of 1.05 ng/ml. Estimation of pharmacokinetic parameters was conducted using noncompartmental analysis with WinNonlin software (Phoenix 6.3).

M. tuberculosis H37Rv [4] = assay: animal or person; type: in vivo, Mycobacterium tuberculosis; settings: for Lung CFU burden compared with untreated controls: 10 mg/kg, 4 weeks of treatment, P < 0.05; for ED50: Mycobacterium tuberculosis, H37RV, in Mus musculus, inhaled or nasal, 672 h, read-out: 50% effective dose (ED50)
M. tuberculosis H37Rv [5] = settings: M. tuberculosis; stated without method in this paper; cited from earlier work
M. tuberculosis H37Rv [6] = tested on: M. tuberculosis H37Rv; design: method as in PMID 27275668; settings: 4 weeks of treatment, 0.5% (wt/vol) CMC formulation, previous study; cited from earlier work
in vitro = settings: mouse, plasma
[7] = male, Swiss Webster, in vivo, po, 10 mg/kg
[8] = 50 mg/kg, 4 weeks of treatment, PG:Tween 80 formulation

For `Cc1cc(C)c2cc(C(=O)NC3CCCCCCC3)[nH]c2c1` [compound 1], the “Cell morphology (unhealthy cells: dimples at poles and septum, wrinkled cell surface) versus untreated” value (M. tuberculosis H37Rv [1]; 1× and 10× MIC) was “significantly higher number of unhealthy cells” and the “Cell morphology (dimples per 100 cells, deformed bacilli)” value (M. tuberculosis H37Rv [1]) was “higher rate of deformed bacilli than 1× MIC”.
In the case of `CC[C@@H](CO)NCCN[C@@H](CC)CO` [ethambutol, reference compound], the “Lung CFU counts, Week 2” value (M. tuberculosis H37Rv [2]; […], compound 2 in PG:Tween 80) is reported as 4.34 (0.25)^b, the “Lung CFU counts, Week 4” value (M. tuberculosis H37Rv [2]; […], compound 2 in PG:Tween 80) is reported as 5.60 (0.24)^b and the “Lung CFU counts, Week 2” value (M. tuberculosis H37Rv [2]; in vivo) is reported as 3.56 (0.26)^b. For the same molecule, the “Lung CFU counts, Week 4” value (M. tuberculosis H37Rv [2]; in vivo) was 4.02 (0.28)^b.
For `NNC(=O)c1ccncc1` [isoniazid, reference compound], the “Cell morphology (dimples per 100 cells, deformed bacilli)” value (M. tuberculosis H37Rv [1]) was “more dimples per 100 cells than no treatment, but the difference did not reach statistical significance”.
For `C[C@@H]1[C@H]2C[C@@H](C[C@H]1NC(=O)c1cc3c(F)cc(F)cc3[nH]1)C2(C)C` [compound 2], the “F (relative bioavailability)” value ([3]; 10 mg/kg p.o., PG:Tween 80 formulation (suspension)) was 96%, the F ([3]; Swiss Webster, in vivo) was 22% and the “F (relative bioavailability)” value ([3]; male, Swiss Webster, in vivo) was 22%. For the same molecule, the “Time for which plasma concentration of free compound exceeded the MIC postdose” value ([3]; male, Swiss Webster, in vivo) was 24 h, the “Increase in relative bioavailability compared with the CMC formulation” value [3, 7] was 74% and the Tmax [3, 7] was 1.00 ± 0.00 h. For the same molecule, the Tmax ([3]; male, Swiss Webster, in vivo, po, 10 mg/kg, Tmax) was 1.25 ± 1.06 h, the “Lung CFU count lower than that of positive control ethambutol at 100 mg/kg” value (M. tuberculosis H37Rv [2]; [8]) was 1.2 log and the “Mean lung CFU count lower than that of untreated controls” value (M. tuberculosis H37Rv [2]; [8]) was 4.66 log. For the same molecule, the “Lung CFU counts, Week 2” value (M. tuberculosis H37Rv [2]; […], compound 2 in PG:Tween 80) was 3.40 (NA)^b^,^c, the “Lung CFU counts, Week 4” value (M. tuberculosis H37Rv [2]; […], compound 2 in PG:Tween 80) was 2.82 (0.34)^b and the “Lung CFU burden compared with untreated controls” value (M. tuberculosis H37Rv [4]) was “significantly reduced the lung CFU burden”. For the same molecule, the ED50 (M. tuberculosis H37Rv [4]) was 28.9 mg/kg, the MIC (M. tuberculosis H37Rv [5]) was 4 ng/mL (≈ 0.012 µM) and the “Lung CFU counts higher than positive control ethambutol at 100 mg/kg” value (M. tuberculosis H37Rv [6]) was 2.0 log. For the same molecule, the fraction unbound (in vitro) was 0.032.
With `CC1(C)CCC(NC(=O)c2cc3c(Cl)cc(Cl)cc3[nH]2)CC1` [compound 3] the “Lung CFU burden compared with untreated controls” value (M. tuberculosis H37Rv [4]) was “did not”, the ED50 (M. tuberculosis H37Rv [4]) was 43 mg/kg and the “Lung CFU, D28” value (M. tuberculosis H37Rv [4]; in vivo) was 7.05±0.09 and 6.99±0.19 and 5.66±0.14 and 4.15±0.06 and 3.65±0.11.
